Measurements: patent US20070249582A1, “Method of Treating Substance Abuse with Quetiapine” (ASTRAZENECA AB, priority 2001, published 2007)

Tested on: outpatients with bipolar disorder and cocaine dependence
[1] = baseline to exit, all evaluable patients
[2] = baseline to week 12, LOCF, p<0.003

## OCCOCCN1CCN(C2=Nc3ccccc3Sc3ccccc32)CC1 [Quetiapine, 11-(4-[2-(2-hydroxyethoxy)ethyl]-1-piperazinyl)dibenzo[b,f][1.4]-thiazepine]
8 completers, baseline, past week
  Mean amount spent on drugs at baseline: 80.8±105.4 $
8 completers, week 12, past week
  Mean amount spent on drugs at exit: 10.0±17.7 $
8 subjects who completed all 12 weeks, p=0.043
  Reduction in amount spent on drugs: 87%
[1]
  Dollar amount spent on drugs: did not decrease significantly
  Percent of positive urine samples: did not decrease significantly
[2]
  Brief Psychiatric Rating Scale (BPRS) score: improved significantly
  Young Mania Rating Scale (YMRS) score: improved significantly
Baseline to week 12, LOCF, p<0.003, mean maximum dose 312.5±95.6 mg/day
  Hamilton Depression Scale (HDRS) score: improved significantly
Baseline to week 12, p<0.05
  Cravings as measured by the cocaine craving questionnaire (CCQ): significantly decreased
In vivo
  Tolerability: well tolerated
  Withdrawals because of side effects: no subjects withdrawing because of side effects
